We go through three sequences from patent US12018252B2, “Methods and compositions for identifying neoantigens for use in treating cancer” (Arizona Board of Regents on Behalf of Arizona State …, priority 2019, dated 2024).

One experiment concerns 4T1 cells. As to the kind of experiment: BALB/C-4T1 mouse breast tumor model: immunization then tumor challenge. The experiment is classed as in vivo. As to conditions: 4T1-BALB/c. As for the experimental part: BALB/c and C57BL/6 mice were from Charles River Laboratories or Jackson Laboratories. […] Tumor volumes were measured and calculated by (Length^2×Width/2) daily after the size was larger than 1 mm^3. Breeding pairs of BALB-neuT and FVB-neuN (FVB/N-Tg (MMTVneu) 202Mul) mice were obtained from Joseph Lustgarten, Mayo Clinic Arizona. Mice were monitored weekly for the tumor incidence after tumor size reached 1 mm^3. All experiments were performed in accordance with protocols approved by the Institutional Animal Care and Use Committee of Arizona State University.
The DNA fragments encoding FS peptides were cloned as a C-terminal fusion into the genetic immunization vectors pCMVi-UB (26) and pCMVi-LSrCOMPTT (27, 28) with the Bgl II and Hind III and mixed with 1:1 ratio as the vaccine antigen. Three adjuvants were encoded by genetic immunization vectors. The pCMVi-mGM-CSF vector expresses the adjuvant mouse granulocyte/macrophage colony-stimulating factor (mGM-CSF) under control of the human cytomegalovirus (CMV) promoter (27). […]. Vectors pCMVi-UB, pCMVi-LSrCOMPTT, pCMVi-LTA (also called pCMVi-LS-LTA-R192G) and pCMVi-LTB are available from the PSI:Biology-Materials Repository DNASU (dnasu.org) at Arizona State University. Additional adjuvants were the class A CpG 2216 single-stranded oligodeoxynucleotide obtained from Sigma and alum from Pierce.
Bullets for biolistic genetic immunization used the gold micronanoplex approach and were prepared as described (30) with the following changes. Two grams of 1-micron gold was used. Prior to addition of N-hydroxysuccinimide and N-(3-dimethylaminopropyl)-N′-ethylcarbodiimide hydrochloride, the gold was resuspended in 20 mL of a 0.1 M solution of 2-(N-morpholino) ethanesulfonic acid (MES), pH 6.0. DNA-gold micronanoplexes were prepared by combining, per bullet, 57 μL of cysteamine-gold solution with precipitated DNA (≤10 μg) that had been resuspended in ≤15 μL of water, and then vortexing for 10 min. To the DNA-cysteamine-gold was added […] of a freshly made solution of PEI-micron gold (167 mg/mL in 0.1 M MES, pH 6, without NaCl). The pelleted micronanoplexes were washed with ethanol prior to resuspension in n-butanol ([…]), followed by bullet formation under nitrogen gas.
For the three MS FS experiments, all mice (n=10 per group) were genetically immunized in the ear by Gene Gun at 8 weeks of age (2 shots/mouse, 60 ng pooled antigens plus 0.25 μg LTAB and 2.5 μg CpG2216 as the adjuvant for each shot) and boosted twice (two days apart) in three weeks with 1 μg pooled antigens plus the same adjuvants dosage. All mice were boosted again in two weeks with 50 μg KLH conjugated MS FS peptides with 50 μg CpG 2216 and 50 ul alum in total 100 ul PBS. […]

A further experiment concerns B16-F10 cells. As to the kind of experiment: C57BL/B16-F10 mouse melanoma model: genetic immunization then tumor challenge. The experiment is classed as in vivo. The settings on record: B16F10-C57BL6; gene gun genetic immunization; compared to mock/control antigen CPV 172; n=10 per group.
The mark [1] stands for this setting: gene vaccines three times in two week intervals, 2x10^3 4T1 cells subcutaneous, n=4 per group, vs mock.

In the case of “AVLLMCQLYQPWMCKEYYRLL [ZDHHC17, mouse mis-splicing FS antigen, skips exon 16]”, the tumor growth result in the experiment with 4T1 cells (setting [1]) is “did not”. With “IPRMQPQASANHCQLLKVMVA [SLAIN2-FS, mouse mis-splicing FS antigen, skips exon 7]”, the tumor growth result in the experiment with 4T1 cells (setting [1]) is reported as “conferred tumor retardation”. Regarding “TAIIGPNGSGCSGVYCHEEPQGEDSSV [SMC1A 1^4 FS, mouse mis-splicing FS antigen, SMC1A exon 1 joined to exon 4]”, the tumor growth result with 4T1 cells (gene gun plus KLH-peptide boost, 5x10^3 4T1 cells, n=10 per group) was “significantly retarded the 4T1 tumor growth”. Besides, the “T cell dependence of protection (CD8 or CD4 T-cell depletion)” value in the experiment with 4T1 cells (immunized mice depleted with anti CD8 or anti CD4 antibody) is given as “CD8 T cell dependent”. Besides, the “tumor growth (tumor volume)” value in the experiment with B16-F10 cells is “significant retardation of tumor growth”.
